According to patent US20250017849A1 (ETH ZURICH, priority 2021, published 2025):
Blank lines part the entries; values can stand above or below the molecule they belong to.

Key:
[1] = pharmacokinetic study of semaglutide mucosal suction patch in beagle dogs; format: in vivo; conditions: patch with 9 mg semaglutide, 1.2 mg PVA, 11.7 mg NaTaC
Experimental: Briefly, an aliquot of 900 μL dog plasma sample was mixed with 10 μL internal standard (Goserelin; 25 ng/mL) and 300 μL 4% H3PO4 acidified water into 1.5 mL Eppendorf tubes. The plasma sample was then extracted using Oasis™ WAX solid-phase extraction cartridges.
The drug plasma concentration was evaluated using an LC-MS/MS method as described in Example 11.

porcine buccal mucosa [2] = experiment: ex vivo effect of hypobaric pressure on diffusion of marker molecule in porcine buccal mucosa; format: in vitro ADME; conditions: 54 μg Cy5, 2.1 mg C10, 1.2 mg PVA, pressure set to 30 kPa, 37° C., 3 h
Experimental: The device could continuously monitor and control the pressure inside the patch to a constant value, e.g., 30 kPa. For the application, the buccal tissue was prepared as described above and placed in a 6-well plate that is filled with DMEM buffer. […] Subsequently, the pressure was set by the reduction valve to 30 kPa and left in the 37° C. incubators for 3 h. Afterwards, the vacuum pump was turned off and the mucosal suction patches were detached. The tissue specimen was processed as described before for fluorescent imaging. The intensity of each image was converted to the equivalent of 150 ms exposure time to allow the comparability. When plotting the fluorescent intensity-distance profile, the absolute intensity was utilized instead of the normalized in order to compare the pressure-related permeation enhancing effects among different samples.

[3] = oral formulation, even in the presence of permeation enhancers; cited from earlier work
[4] = dog, in vivo
Experimental: As a control formulation, enteric-coated (Eudragit® L100-55, Essen, Germany) capsules containing commercial Minirin® drug tablets (6 pieces containing 1.2 mg desmopressin in total) was given orally to the dog.
A 3D printed clamp containing a cavity for the suction patch containing 1.2 mg desmopressin, 1.2 mg PVA, and 5.7 mg NaTaC was attached to the dog's mucosa, ensuring similar conditions (i.e., enclosed environment, close contact to the mucosa, same sample preparation and loading) as the applied suction patch, but […] and without negative pressure and the resulting tissue deformation.
The dogs were anesthetized for the duration of the experiment (3 h). […] Blood samples were collected in K2EDTA tubes immediately followed by centrifugation at 1700 G for 10 min at 4° C. Subsequently, the plasma was stored in clear polypropylene vials at −80° C. until further analysis. The drug plasma concentration was evaluated using LC-MS/MS method. Briefly, an aliquot of 900 μL dog plasma sample was mixed with 10 μL internal standard (Goserelin; 25 ng/mL) and 300 μL 4% H3PO4 acidified water into 1.5 mL Eppendorf tubes. The plasma sample was then extracted using Oasis™ WAX solid-phase extraction cartridges. […] Samples were analyzed in TOF-MRM mode with a quantification limit of […]. […]

porcine buccal mucosa [5] = experiment: ex vivo permeation of surrogates through porcine buccal mucosa with mucosal suction patch; format: in vitro ADME; conditions: patch with surrogate, 1.2 mg PVA, 5.7 mg NaTaC, 3 h
Experimental: Specimen were permeabilized with a 0.5% Trition™ X100 PBS buffered solution for 15 min, washed for 3 min in PBS and incubated with a PBS buffered solution of 0.1% iFluor™ 488-conjugated phalloidin (F-Actin stain) and 0.1% Hoechst 33342 (Nucleous stain) for 30 min.
Fluorescence images were obtained with a widefield microscope (Leica DMI 6000) at 20× magnification in the tile scan mode and merged to a single image. The specimen was excited at 590-650 nm and the emission filtered from 662-738 nm. To evaluate the penetration depth of the surrogate, images were processed as grayscale with Fiji-ImageJ™ software. Line profiles of the grayscale intensity were obtained by drawing multiple straight lines vertical to the surface of the mucosa lining. The obtained intensity-distance profiles were transferred to Microsoft Excel™ and MatLab™ for further processing. The autofluorescence was first corrected by subtracting the averaged baseline intensity multiplied by 3 times its standard deviation obtained from a lower laying region of the tissue. The maximum intensity was set to 100% and the corresponding distance value was set to zero to normalize the drug distribution profile. […]
The molecular weight range of administrable drugs was evaluated ex-vivo on porcine buccal mucosa tissue by applying drug surrogates with different molecular weights. […]

Molecule: CC[C@H](C)[C@H](NC(=O)[C@H](Cc1ccccc1)NC(=O)[C@H](CCC(=O)O)NC(=O)[C@H](CCCCNC(=O)COCCOCCNC(=O)COCCOCCNC(=O)CC[C@H](NC(=O)CCCCCCCCCCCCCCCCC(=O)O)C(=O)O)NC(=O)[C@H](C)NC(=O)[C@H](C)NC(=O)[C@H](CCC(N)=O)NC(=O)CNC(=O)[C@H](CCC(=O)O)NC(=O)[C@H](CC(C)C)NC(=O)[C@H](Cc1ccc(O)cc1)NC(=O)[C@H](CO)NC(=O)[C@H](CO)NC(=O)[C@@H](NC(=O)[C@H](CC(=O)O)NC(=O)[C@H](CO)NC(=O)[C@@H](NC(=O)[C@H](Cc1ccccc1)NC(=O)[C@@H](NC(=O)CNC(=O)[C@H](CCC(=O)O)NC(=O)C(C)(C)NC(=O)[C@@H](N)Cc1cnc[nH]1)[C@@H](C)O)[C@@H](C)O)C(C)C)C(=O)N[C@@H](C)C(=O)N[C@@H](Cc1c[nH]c2ccccc12)C(=O)N[C@@H](CC(C)C)C(=O)N[C@H](C(=O)N[C@@H](CCCNC(=N)N)C(=O)NCC(=O)N[C@@H](CCCNC(=N)N)C(=O)NCC(=O)O)C(C)C [semaglutide]
plasma concentrations [1]: therapeutic relevant plasma concentrations

effect of negative pressure on drug permeation (porcine buccal mucosa [2]): effectively enhanced the drug permeation
Molecule: Cy5

Molecule: octreotride
oral bioavailability [3]: 0.5-1%

bioavailability higher than commercial tablets [4]: 35%
Molecule: NC(=O)CC[C@@H]1NC(=O)[C@H](Cc2ccccc2)NC(=O)[C@H](Cc2ccc(O)cc2)NC(=O)CCSSC[C@@H](C(=O)N2CCC[C@H]2C(=O)N[C@H](CCCN=C(N)N)C(=O)NCC(N)=O)NC(=O)[C@H](CC(N)=O)NC1=O [desmopressin]

B1: Alexa647-Ovalbumin: Alexa647 dye linked to ovalbumin (≈5.5 nm, 45 kDa) (conjugate, UniProt P01012 2-386, looked up)
Ovalbumin: GSIGAASMEFCFDVFKELKVHHANENIFYCPIAIMSALAMVYLGAKDSTRTQINKVVRFDKLPGFGDSIEAQCGTSVNVHSSLRDILNQITKPNDVYSFSLASRLYAEERYPILPEYLQCVKELYRGGLEPINFQTAADQARELINSWVESQTNGIIRNVLQPSSVDSQTAMVLVNAIVFKGLWEKAFKDEDTQAMPFRVTEQESKPVQMMYQIGLFRVASMASEKMKILELPFASGTMSMLVLLPDEVSGLEQLESIINFEKLTEWTSSNVMEERKIKVYLPRMKMEEKYNLTSVLMAMGITDVFSSSANLSGISSAESLKISQAVHAAHAEINEAGREVVGSAEAGVDAASVSEEFRADHPFLFCIKHIATNAVLFFGRCVSP
modifications: Alexa647 dye
crossing of the mucosal epithelium (porcine buccal mucosa [5]): reach deep inside
